From BindingDB's records for doi:10.1016/S0960-894X(97)00083-8 (1997)

Target: Integrin alpha-IIb/beta-3 (Homo sapiens, UniProt P08514+P05106)
Assay: ChEBML_215984

Integrin alpha-IIb/beta-3, sequence (P05106 27-788 limits assumed): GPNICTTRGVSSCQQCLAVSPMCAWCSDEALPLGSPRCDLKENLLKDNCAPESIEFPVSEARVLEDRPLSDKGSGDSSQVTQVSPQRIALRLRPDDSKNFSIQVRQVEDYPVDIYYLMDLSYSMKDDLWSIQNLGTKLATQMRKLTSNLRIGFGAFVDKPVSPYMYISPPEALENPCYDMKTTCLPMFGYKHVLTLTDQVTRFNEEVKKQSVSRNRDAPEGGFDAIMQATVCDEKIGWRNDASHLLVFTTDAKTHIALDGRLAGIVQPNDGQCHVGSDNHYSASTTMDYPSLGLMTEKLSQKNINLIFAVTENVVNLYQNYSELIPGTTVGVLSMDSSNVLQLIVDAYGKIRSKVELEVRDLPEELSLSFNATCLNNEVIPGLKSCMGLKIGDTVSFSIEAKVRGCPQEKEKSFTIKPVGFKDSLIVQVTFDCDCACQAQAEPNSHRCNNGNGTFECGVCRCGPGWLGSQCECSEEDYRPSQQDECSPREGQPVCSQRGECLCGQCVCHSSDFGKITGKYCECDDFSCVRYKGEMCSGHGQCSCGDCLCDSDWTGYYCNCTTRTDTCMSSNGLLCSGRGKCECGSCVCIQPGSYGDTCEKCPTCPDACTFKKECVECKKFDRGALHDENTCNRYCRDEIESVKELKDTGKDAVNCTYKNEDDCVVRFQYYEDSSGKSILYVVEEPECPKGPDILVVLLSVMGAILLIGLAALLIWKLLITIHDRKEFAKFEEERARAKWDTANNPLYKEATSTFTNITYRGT
Integrin alpha-IIb/beta-3, sequence (P08514 32-887 limits assumed): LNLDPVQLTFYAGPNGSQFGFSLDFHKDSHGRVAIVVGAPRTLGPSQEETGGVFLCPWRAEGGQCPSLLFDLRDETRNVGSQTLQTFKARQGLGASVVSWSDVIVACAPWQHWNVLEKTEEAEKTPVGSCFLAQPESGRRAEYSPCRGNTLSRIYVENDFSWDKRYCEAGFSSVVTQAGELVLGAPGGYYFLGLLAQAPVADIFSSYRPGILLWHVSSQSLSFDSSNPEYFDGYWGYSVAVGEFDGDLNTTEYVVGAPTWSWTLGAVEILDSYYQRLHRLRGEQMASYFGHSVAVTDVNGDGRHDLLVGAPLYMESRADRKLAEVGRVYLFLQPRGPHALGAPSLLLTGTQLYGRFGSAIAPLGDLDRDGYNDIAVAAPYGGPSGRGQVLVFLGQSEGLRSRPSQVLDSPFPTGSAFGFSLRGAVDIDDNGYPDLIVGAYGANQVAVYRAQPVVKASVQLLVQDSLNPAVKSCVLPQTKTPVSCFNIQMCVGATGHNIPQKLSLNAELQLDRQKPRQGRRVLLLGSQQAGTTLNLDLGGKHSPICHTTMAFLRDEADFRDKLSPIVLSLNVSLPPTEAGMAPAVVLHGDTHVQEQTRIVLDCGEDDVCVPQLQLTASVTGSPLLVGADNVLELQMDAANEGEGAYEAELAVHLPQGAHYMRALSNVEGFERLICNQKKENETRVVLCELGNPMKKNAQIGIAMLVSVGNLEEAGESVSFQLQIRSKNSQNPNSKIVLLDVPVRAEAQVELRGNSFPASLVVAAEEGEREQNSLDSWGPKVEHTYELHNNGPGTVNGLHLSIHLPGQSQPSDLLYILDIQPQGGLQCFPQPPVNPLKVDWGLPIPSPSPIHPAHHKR
Integrin alpha-IIb/beta-3, sequence (P08514 891-1039 limits assumed): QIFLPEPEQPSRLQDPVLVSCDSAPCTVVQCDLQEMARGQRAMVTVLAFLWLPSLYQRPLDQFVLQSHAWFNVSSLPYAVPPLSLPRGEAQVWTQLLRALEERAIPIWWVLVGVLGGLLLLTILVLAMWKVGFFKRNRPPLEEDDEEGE

IC50: 0.013 µM
Structure (SMILES): CC(C)C1CN(C)C(CCCN=C(N)NC(=O)c2ccc(N=[N][Tc]345(=[P@SP2](c6ccc([S@TB1](=O)(=O)O)cc6)(c6ccccc6S(=O)(=O)O)c6ccccc6[S@TB1](=O)(=O)O)[O]CC[N]3C(CO)(C[O]4)C[O]5)nc2)C(=O)NCC(=O)NC(CC(=O)O)C(=O)NCc2cc(NC(=O)CCCCCN)cc(c2)C(=O)N1 (stereo unspecified) [RP-444]
